Experimental data taken from patent US6887878B2, “KMST isoeugenol derivatives and pharmaceutical activity” (Ing-Jun Chen, priority 2003, dated 2005).
Read-outs that look alike come from different tables or passages of the source.

Tests used:
[1] = biological target: T1, 5-HT1B (Rattus norvegicus, UniProt P28564); assay: [3H]GR125743 receptor binding in rat cortex; set-up: species or system Wistar rat
T1 construct: from tissue; host or cells: Wistar rat cortex membranes
Procedure: (§1) The homogenate was pressure filtered through muslin. Filtrate was centrifuged at 1000 g for 10 min. […] Protein content was determined by Bradford's method.

[2] = tested on: phenylephrine-induced contractions in rat thoracic aorta; assay: LPS-induced vascular hyporeactivity: phenylephrine-induced contractions in rat thoracic aorta; assay type: in vivo, Wistar rat
[3] = tested on: lipid peroxidation in rat brain homogenate; assay: lipid peroxidation initiated by Fe2+-ascorbic acid in rat brain homogenates (TBARS); assay type: biochemical; conditions: rat brain homogenates; read-out: IC50 inhibiting lipid peroxidation initiated by Fe2+-ascorbic acid
Procedure: Rat brain homogenate was made in 0.9% saline containing 10 mg tissue/ml. The rates of membrane lipid peroxidation were measured by the formation of thiobarbituric acid (TBA)-reactive substance (TBARS). Rat brain homogenates (1 ml) were incubated at 37° C. for 5 min with 10 μl of test compound or vehicle. […] After 30 min of incubation, the reaction was stopped by adding 0.1 ml of 0.2% BHT. TBA reagent was then added and the mixture was heated for 30 min in a boiling water bath. […] The amount of TBARS was quantified using the linear regression obtained from malondialdehyde (MDA) standards.

[4] = LPS-induced blood glucose changes; assay type: in vivo, rat; conditions: for LPS-induced early hyperglycemia: at 1 and 3 hours; for LPS-induced hypoglycemia: at 5 hours
Procedure: (§2) In brief, Wistar rats weighing 250-300 g were anesthetized with pentobarbital sodium (50 mg kg^−1, i.p.). Following tracheal cannulation, systemic arterial BP and HR were recorded from the femoral artery by a pressure transducer (model P10EZ; Spectramed, Oxnard, Calif., U.S.A.) connected to a recorder (GOULD, Valley View, Ohio, Model P50). Body temperature was maintained at 37° C. by an electric heating pad. A femoral vein was cannulated for intravenous injection of drugs and LPS (10 mg kg^−1).
(§3) Blood was collected from venous cannula, injected into ice-cold heparinized Eppendorf tubes and centrifuged at 1500 rpm for 10 min at 4° C. Plasma supernatant was stored at −70° C. until analyzed. Solid phase enzyme immunoassay that specifically detects murine IL-1β, IL-6, IFN-γ and TNF-α was used with a detection limit of >10 pg/ml (Endogen, U.S.A). Pre-treatment with KMST and other agents was performed 15 minutes before intravenous injection of LPS. Blood was collected from venous cannula. Blood glucose was measured with a glucose test strip (Glucotide, Bayer, U.S.A) at 1, 3 and 5 hours.

[5] = tested on: IL-1β, IL-6, IFN-γ and TNF-α; assay: LPS-induced plasma cytokine immunoreactivity; assay type: in vivo, rat; conditions: 1 hour after LPS administration
Procedure: as §2, §3

[6] = biological target: α1 receptors; assay: [3H]prazosin receptor binding in rat cortex; set-up: species or system Wistar rat
Procedure: as §1

[7] = biological target: α2 receptors; assay: [3H]yohimbine receptor binding in rat cortex; set-up: species or system Wistar rat
Procedure: as §1

[8] = tested on: epinephrine-induced human platelet aggregation; assay: epinephrine-induced human platelet aggregation; assay type: cell-based; conditions: epinephrine 5 μM, PRP
Procedure: (§4) Venous blood from human volunteer donors was collected in 10 ml Monovette containing 1 ml citrate solution (0.106M trisodium citrate; Sarstedt, Nümbrecht, Germany) and centrifuged (400 g, 10 min, 20° C.). […] After centrifugation (10 min, 2000 g, 20° C.), the platelet pellet was resuspended in wishing buffer (113 mM NaCl, 4 mM Na2HPO4, 24 mM NaH2PO4, 4 mM KCl, 0.2 mM EGTA(Ethylene glycol-bis-(2-aminoethyl ether) N,N,N′-tetraacetic acid), 0.1% (wt/vol) glucose, pH 6.0) and recentrifuged (10 min, 2000 g, 20° C.). The washed platelets were resuspended in incubation buffer (134 mM NaCl, 12 mM NaHCO3, 2.9 mM KCl, 0.34 mM NaH2PO4, 5 mM HEPES (N-(2-hydroxyethyl) piperazine-N′-(2-ethanesulfonic acid)), 5 mM glucose, pH7.4), cells were counted in a Sysmex hematology analyzer (Sysmex, CDA-500, Japan) and adjusted to a final concentration of 2×10^8 platelets/ml.
(§5) The aggregation of the platelets in platelet-rich plasma (PRP) was measured as a change in light absorbance by a Payton dual-channel aggregometer (NBS, Hema tracer, Japan). PRP (240 μL) was stirred (700 rpm) at 37° C. for 1 min, and 5 μL epinephrine (final concentration 5 μM), serotonin (final concentration 5 μM) was added. After which the rate of primary aggregation (1/min) and maximum aggregation (%) at 5 min were recorded. To study the effects of compounds on epinephrine or serotonin-induced aggregation, PRP was incubated with 5 μL of compounds at various concentrations for 1 min before epinephrine or serotonin was added. IC50 values given were calculated from the secondary aggregation data.

[9] = biological target: 5-HT2A receptor (Rattus norvegicus, UniProt P14842); assay: [3H]ketanserin receptor binding in rat cortex; set-up: from tissue; host or cells: Wistar rat cortex membranes; species or system Wistar rat
Procedure: as §1

[10] = tested on: serotonin-induced human platelet aggregation; assay: serotonin-induced human platelet aggregation; assay type: cell-based; conditions: serotonin 5 μM, PRP; read-out: IC50 serotonin-induced human platelet aggregation
Procedure: as §4, §5

[11] = biological target: T2, β2 receptors (Rattus norvegicus, UniProt P10608); assay: [3H]CGP-12177 receptor binding in rat lung; set-up: species or system Wistar rat; conditions: [3H]CGP-12177, rat lung
T2 construct: from tissue; host or cells: Wistar rat lung membranes
Procedure: as §1

[12] = biological target: M2; assay: M2 receptor binding; set-up: species or system guinea pig
[13] = biological target: T3, 5-HT1A (Rattus norvegicus, UniProt P19327); assay: [3H]WAY100635 receptor binding; conditions: read-out: Ki 5-HT1A; [3H]WAY100635
T3 sequence (P19327 1-422): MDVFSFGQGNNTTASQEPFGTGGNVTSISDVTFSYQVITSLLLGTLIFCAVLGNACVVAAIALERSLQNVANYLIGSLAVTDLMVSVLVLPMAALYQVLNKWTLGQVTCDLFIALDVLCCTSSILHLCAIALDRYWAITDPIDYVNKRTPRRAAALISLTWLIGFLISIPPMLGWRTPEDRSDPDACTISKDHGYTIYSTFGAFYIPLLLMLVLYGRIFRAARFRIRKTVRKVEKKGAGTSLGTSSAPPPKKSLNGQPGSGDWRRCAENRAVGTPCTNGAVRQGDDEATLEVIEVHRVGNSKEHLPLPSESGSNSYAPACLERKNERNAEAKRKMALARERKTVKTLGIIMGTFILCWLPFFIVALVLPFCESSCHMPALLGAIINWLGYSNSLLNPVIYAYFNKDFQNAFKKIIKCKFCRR

[14] = biological target: T4, β1 receptors (Rattus norvegicus, UniProt P18090); assay: [3H]CGP-12177 receptor binding in rat ventricle; set-up: species or system Wistar rat; conditions: [3H]CGP-12177, rat ventricle
T4 construct: from tissue; host or cells: Wistar rat heart (ventricle) membranes
Procedure: as §1

[15] = agent given after LPS injection (1 hr), pD2 to phenylephrine
[16] = agent given before LPS injection (30 min), pD2 to phenylephrine
[17] = after LPS injection (1 hr), 15 mg kg-1
[18] = before LPS injection (30 min), 1 mg kg-1
[19] = before LPS injection (30 min), 15 mg kg-1
[20] = [3H]GR125743 (5-HT1B/1D), rat cortex, read-out: Ki 5-HT1B

T1 sequence (P28564 whole entry): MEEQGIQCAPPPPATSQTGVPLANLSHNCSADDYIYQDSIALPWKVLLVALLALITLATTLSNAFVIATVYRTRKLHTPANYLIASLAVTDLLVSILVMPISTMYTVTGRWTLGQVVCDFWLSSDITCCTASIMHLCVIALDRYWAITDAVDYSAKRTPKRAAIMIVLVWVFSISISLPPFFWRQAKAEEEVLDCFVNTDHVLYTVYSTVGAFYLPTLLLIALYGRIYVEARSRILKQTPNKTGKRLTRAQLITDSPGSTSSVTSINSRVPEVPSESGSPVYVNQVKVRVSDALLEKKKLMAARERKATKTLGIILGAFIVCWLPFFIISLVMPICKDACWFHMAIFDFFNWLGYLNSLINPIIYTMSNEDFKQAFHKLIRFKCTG
T2 sequence (P10608 whole entry): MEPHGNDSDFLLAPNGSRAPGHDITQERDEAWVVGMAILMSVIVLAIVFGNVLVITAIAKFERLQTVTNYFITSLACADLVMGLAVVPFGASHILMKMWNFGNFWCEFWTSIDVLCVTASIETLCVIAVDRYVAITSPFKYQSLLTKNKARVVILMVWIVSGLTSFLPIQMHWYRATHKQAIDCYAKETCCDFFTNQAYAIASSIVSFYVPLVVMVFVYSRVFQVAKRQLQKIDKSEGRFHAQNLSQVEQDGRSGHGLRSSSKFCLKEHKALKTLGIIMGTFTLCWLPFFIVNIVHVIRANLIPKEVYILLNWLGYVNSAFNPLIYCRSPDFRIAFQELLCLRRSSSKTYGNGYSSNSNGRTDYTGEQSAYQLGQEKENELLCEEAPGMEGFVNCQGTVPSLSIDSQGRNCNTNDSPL
Chain of 5-HT2A receptor (P14842 whole entry): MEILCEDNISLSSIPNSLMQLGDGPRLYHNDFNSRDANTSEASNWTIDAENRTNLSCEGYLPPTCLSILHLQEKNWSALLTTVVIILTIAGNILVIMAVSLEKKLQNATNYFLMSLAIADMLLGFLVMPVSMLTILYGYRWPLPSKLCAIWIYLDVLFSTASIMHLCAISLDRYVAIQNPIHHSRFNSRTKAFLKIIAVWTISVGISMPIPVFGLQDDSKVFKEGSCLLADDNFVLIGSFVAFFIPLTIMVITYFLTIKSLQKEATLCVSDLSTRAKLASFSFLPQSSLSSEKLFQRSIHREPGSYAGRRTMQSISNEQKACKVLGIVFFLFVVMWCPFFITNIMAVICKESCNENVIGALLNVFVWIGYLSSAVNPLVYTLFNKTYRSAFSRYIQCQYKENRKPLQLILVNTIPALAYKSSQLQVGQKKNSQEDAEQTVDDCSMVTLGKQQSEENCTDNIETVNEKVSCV
T4 sequence (P18090 whole entry): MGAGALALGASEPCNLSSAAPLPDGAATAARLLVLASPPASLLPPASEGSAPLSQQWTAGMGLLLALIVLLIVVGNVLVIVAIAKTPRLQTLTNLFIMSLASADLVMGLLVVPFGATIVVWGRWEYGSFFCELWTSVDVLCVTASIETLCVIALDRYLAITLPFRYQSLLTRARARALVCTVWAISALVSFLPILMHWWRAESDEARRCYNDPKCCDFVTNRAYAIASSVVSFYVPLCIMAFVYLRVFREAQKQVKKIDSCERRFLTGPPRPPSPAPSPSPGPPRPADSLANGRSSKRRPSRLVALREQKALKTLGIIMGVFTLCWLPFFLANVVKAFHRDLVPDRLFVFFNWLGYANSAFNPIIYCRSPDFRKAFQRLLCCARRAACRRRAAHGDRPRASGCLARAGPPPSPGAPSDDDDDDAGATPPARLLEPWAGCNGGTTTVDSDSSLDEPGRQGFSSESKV

Q: For `CCCCCCCCCOc1ccc2[nH]cc(CCN)c2c1` [5-nonyloxytryptamine, reference compound], which Ki [1] is on record?
A: Its Ki is 5.81 nM.

Q: Which results are given for `Cl.N=C(N)NN` [Aminoguanidine, aminoguanidine HCl]?
A: pD2 at 3rd hr [2, 15]: 6.48 ± 0.13; pD2 at 5th hr [2, 15]: 5.81 ± 0.14; pD2 at 3rd hr [2, 16]: 6.81 ± 0.17; pD2 at 5th hr [2, 16]: 5.44 ± 0.31; IC50 [3]: > 100000 nM; LPS-induced early hyperglycemia [4]: inhibited; LPS-induced hypoglycemia [4]: did not affect

Q: Which “pD2 at 3rd hr” value [2, 17] does the source give for `O=C1O[C@H]([C@@H](O)CO)C(O)=C1O` [Ascorbic acid] here?
A: The value was 6.64 ± 0.16.

Q: And the “pD2 at 5th hr” value [2, 17]?
A: Its value is 5.21 ± 0.12.

Q: And the “pD2 at 3rd hr” value [2, 18]?
A: Its value is 7.07 ± 0.25.

Q: And the “pD2 at 5th hr” value [2, 18]?
A: Its value is 5.04 ± 0.28.

Q: What about the “pD2 at 3rd hr” value [2, 19] of the same molecule?
A: Its value is 6.71 ± 0.13.

Q: What about the “pD2 at 5th hr” value [2, 19] of the same molecule?
A: The value was 5.11 ± 0.22.

Q: And the “LPS-induced production of IFN-γ” value [5]?
A: Its value is “insignificantly enhanced”.

Q: What about the IC50 [3] of the same molecule?
A: The IC50 was 7150 ± 140 nM.

Q: What about the LPS-induced early hyperglycemia [4] of the same molecule?
A: Its LPS-induced early hyperglycemia is “inhibited”.

Q: And the LPS-induced hypoglycemia [4]?
A: The LPS-induced hypoglycemia was “did not affect”.

Q: Which Ki [6] does the source give for `CC(C)NCC(O)COc1ccc(CC(N)=O)cc1` (stereo not drawn) [Atenolol] here?
A: Its Ki is > 10000 nM.

Q: What about the Ki [7] of the same molecule?
A: The Ki was > 10000 nM.

Q: For `CC=Cc1ccc(OCC(O)CN2CCN(c3ccc(Cl)cc3)CC2)c(OC)c1` (stereo not drawn) [Compound 2], which IC50 [8] is on record?
A: Its IC50 is 3900 nM.

Q: What about the Ki [9] of the same molecule?
A: Its Ki is 2.99 nM.

Q: What about the Ki [1, 20] of the same molecule?
A: Its Ki is 1090 nM.

Q: And the Ki [6]?
A: Its Ki is 47 nM.

Q: What about the IC50 [10] of the same molecule?
A: Its IC50 is 4.73 nM.

Q: What about the Ki [11] of the same molecule?
A: Its Ki is > 10000 nM.

Q: And the Ki [12]?
A: The Ki was > 10000 nM.

Q: And the Ki [7]?
A: The Ki was 1970 nM.

Q: And the Ki [13]?
A: The Ki was > 10000 nM.

Q: And the Ki [14]?
A: Its Ki is 106 nM.

Q: For `CC=Cc1ccc(OCCCN2CCN(c3cccc(Cl)c3)CC2)c(OC)c1` [Compound 3], which IC50 [8] is on record?
A: The IC50 was 4.38 nM.

Q: And the Ki [9]?
A: The Ki was 3.11 nM.

Q: And the Ki [1, 20]?
A: The Ki was 770 nM.

Q: And the Ki [6]?
A: Its Ki is 142 nM.

Q: And the IC50 [10]?
A: Its IC50 is 530 nM.

Q: And the Ki [11]?
A: Its Ki is > 10000 nM.

Q: And the Ki [12]?
A: Its Ki is > 10000 nM.

Q: What about the Ki [7] of the same molecule?
A: The Ki was 9290 nM.

Q: And the Ki [13]?
A: The Ki was > 10000 nM.

Q: And the Ki [14]?
A: The Ki was 113 nM.

Q: Which Ki [6] does the source give for `NCCc1c[nH]c2ccc(O)cc12` [Compound 5-HT, 5-Hydroxytryptamine] here?
A: Its Ki is > 10000 nM.

Q: And the Ki [7]?
A: The Ki was > 10000 nM.
